Source: paper PMC6805867, “Amphiphilic Triazine Polymer Derivatives as Antibacterial And Anti-atopic Agents in Mice Model” (Scientific Reports, 2019)
≈ marks a conversion by molar mass, not a printed value.

Experiments:
[1] = system: Multidrug-resistant Pseudomonas aeruginosa (MDRPA) (CCARM 2095); assay: Chequerboard assay (synergy with clinically used antibiotics); assay type: cell-based; details: for FICA (fractional inhibitory concentration of antibiotic): [A]/MICA; for MICA (MIC of antibiotic alone): MDRPA CCARM 2095, 37 °C, 22 h, unit printed only in b27, not in the table; for [A] (MIC of antibiotic in combination): MDRPA CCARM 2095, unit not given
Description: Briefly, 2-fold serial dilutions of each antibiotic and each polymer were prepared and added in a 1:1 volume ratio to the wells of a 96-well plate. An equal volume of bacterial solution (100 μL) at ∼10^6 CFU/mL was then seeded into each well. The plates were incubated in a shaking incubator at 37 °C and 200 rpm and read after 22 h. Bacterial growth was assessed visually or spectrophotometrically via OD600 readings taken by a microplate ELISA reader (Molecular Devices, Sunnyvale, CA, USA). The fractional inhibitory concentration index (FICI) for each drug combination was calculated using the following equation: FICI = FICA + FICB = [A]/MICA + [B]/MICB, where MICA and MICB are the MIC of antibiotic and triazine based monomer (TZP3 or TZP5), respectively, while [A] and [B] are the MIC of antibiotic and triazine based monomer (TZP3 or TZP5) in combination, respectively. FICI of ≤ 0.5 was interpreted as synergy, 0.5 < FICI ≤ 1.0 as additive, 1.0 < FICI ≤ 4.0 as indifferent, and a FICI > 4.0 as antagonism.

[2] = system: Bacillus subtilis (KCTC 3068); assay: Antimicrobial activity, broth microdilution MIC; assay type: cell-based; details: 2 × 10^6 CFU/mL in 1% peptone, 37 °C, 18–22 h, 100% inhibition of growth, performed three times
Description: (§1) The bacterial strains employed in the experiment were Escherichia coli (KCTC 1682), Pseudomonas aeruginosa (KCTC 1637), Bacillus subtilis (KCTC 3068), Staphylococcus aureus (KCTC 1621), three methicillin-resistant Staphylococcus aureus (CCARM 3089, 3090 and 3095), two multidrug-resistant Pseudomonas aeruginosa (CCARM 2095 and 2109) and vancomycin-resistant Enterococcus faecium (ATCC 51559). The antimicrobial activities of polymers were determined by the broth microdilution method, and the procedures were used as previously reported. Briefly, bacteria grown to mid-logarithmic phase in LB broth were diluted to 2 × 10^6 CFU/mL in 1% peptone and added to serial two-fold dilutions of different polymers ranging from 1 to 64 μg/mL. The plates were incubated in a shaking incubator at 37 °C for 18–22 h. The minimum inhibitory concentration (MIC) was determined by confirming the absence of bacterial growth both visually and spectrophotometrically by OD600 readings taken by a microplate ELISA reader (Molecular Devices, Sunnyvale, CA, USA). All measurements were performed three times.

[3] = system: Escherichia coli (KCTC 1682); assay: Antimicrobial activity, broth microdilution MIC; assay type: cell-based; details: 2 × 10^6 CFU/mL in 1% peptone, 37 °C, 18–22 h, 100% inhibition of growth, performed three times
Description: as §1

[4] = system: Pseudomonas aeruginosa (KCTC 1637); assay: Antimicrobial activity, broth microdilution MIC; assay type: cell-based; details: 2 × 10^6 CFU/mL in 1% peptone, 37 °C, 18–22 h, 100% inhibition of growth, performed three times
Description: as §1

[5] = system: Staphylococcus aureus (KCTC 1621); assay: Antimicrobial activity, broth microdilution MIC; assay type: cell-based; details: 2 × 10^6 CFU/mL in 1% peptone, 37 °C, 18–22 h, 100% inhibition of growth, performed three times
Description: as §1

[6] = system: selected bacterial strains; assay: Geometric mean of MIC values over the bacterial strains; assay type: cell-based; details: geometric mean of MIC values from selected six bacterial strains (footnote b)
Description: as §1

[7] = system: Methicillin-resistant Staphylococcus aureus (MRSA) CCARM 3089; assay type: cell-based; details: broth microdilution, 37 °C, 18–22 h
Description: as §1

[8] = system: Methicillin-resistant Staphylococcus aureus (MRSA) CCARM 3090; assay type: cell-based; details: broth microdilution, 37 °C, 18–22 h
Description: as §1

[9] = system: Methicillin-resistant Staphylococcus aureus (MRSA) CCARM 3095; assay type: cell-based; details: broth microdilution, 37 °C, 18–22 h
Description: as §1

[10] = system: Multidrug-resistant Pseudomonas aeruginosa (MDRPA) CCARM 2095; assay type: cell-based; details: broth microdilution, 37 °C, 18–22 h
Description: as §1

[11] = system: Multidrug-resistant Pseudomonas aeruginosa (MDRPA) CCARM 2109; assay type: cell-based; details: broth microdilution, 37 °C, 18–22 h
Description: as §1

trypsin = assay: Protease stability, radial diffusion assay after tryptic digestion; assay type: in vitro ADME; details: trypsin 0.2 μg/mL in PBS, 37 °C (24 h, 4 h elsewhere in the source), clearance zones against E.coli and S.aureus
Description: The protease stability of triazine based polymers (TZP3 and TZP5) was performed by the radial diffusion assay as described previously. Briefly, a bacteria suspension (2×10^6 CFU/mL in LB) was mixed with 0.7% agarose. This mixture was poured into a 10-cm petri dish, and it dispersed rapidly. […] The reaction was stopped by freezing with liquid nitrogen, after which 10 μL aliquots were placed in each circle paper, put on the agarose plates, and then incubated at 37 °C overnight. The diameters of the bacterial clearance zones surrounding the circle paper were measured for the quantitation of inhibitory activities.

Compound	MIC Bacillus subtilis (KCTC 3068) [2]	MIC Escherichia coli (KCTC 1682) [3]	MIC Pseudomonas aeruginosa (KCTC 1637) [4]	MIC Staphylococcus aureus (KCTC 1621) [5]	GM (geometric mean of MIC values) [6]	also measured
Cc1onc(-c2ccccc2)c1C(=O)N[C@@H]1C(=O)N2[C@@H]1SC(C)(C)[C@@H]2C(=O)O [Oxacillin, oxacillin, reference compound]	–	–	–	–	–	FICA (fractional inhibitory concentration of antibiotic) ([1]; in combination with TZP3): 1.0; FICA (fractional inhibitory concentration of antibiotic) ([1]; in combination with TZP5): 1.0; MICA (MIC of antibiotic alone) [1]: 1024 µM; MICA (MIC of antibiotic alone) ([1]; listed as oxacillin): 512−1024 μM; [A] (MIC of antibiotic in combination) ([1]; in combination with TZP3): 1024; [A] (MIC of antibiotic in combination) ([1]; in combination with TZP5): 1024
NCCCN(CCCN)c1nc(N)nc(NCCNc2nc(NCCNc3nc(NCCNc4nc(NCCNc5nc(Cl)nc(N(CCCN)CCCN)n5)nc(N(CCCN)CCCN)n4)nc(N(CCCN)CCCN)n3)nc(N(CCCN)CCCN)n2)n1 [TZP13]	4 [3.3] μg/mL	8 [6.6] μg/mL	8 [6.6] μg/mL	8 [6.6] μg/mL	7.0 [5.7] μg/mL	–
O=C(N[C@H](CO)[C@H](O)c1ccc([N+](=O)[O-])cc1)C(Cl)Cl [Chloramphenicol, chloramphenicol, reference compound]	–	–	–	–	–	FICA (fractional inhibitory concentration of antibiotic) ([1]; in combination with TZP3): 0.031; FICA (fractional inhibitory concentration of antibiotic) ([1]; in combination with TZP5): 0.031; MICA (MIC of antibiotic alone) [1]: 512 µM; MICA (MIC of antibiotic alone) ([1]; listed as chloramphenicol): 512−1024 μM; [A] (MIC of antibiotic in combination) ([1]; in combination with TZP3): 16; [A] (MIC of antibiotic in combination) ([1]; in combination with TZP5): 16
NCCCN(CCCN)c1nc(Cl)nc(NCCNc2nc(NCCNc3nc(NCCNc4nc(N)nc(NCCC(c5ccccc5)c5ccccc5)n4)nc(N(CCCN)CCCN)n3)nc(NCCC(c3ccccc3)c3ccccc3)n2)n1 [TZP12]	8 [5.8] μg/mL	4 [2.9] μg/mL	16 [11.5] μg/mL	4 [2.9] μg/mL	8.0 [5.8] μg/mL	–
NCCCN(CCCN)c1nc(N)nc(NCCNc2nc(Cl)nc(N(CCCN)CCCN)n2)n1 [TZP1]	64 [121.7] μg/mL	32 [60.8] μg/mL	64 [121.7] μg/mL	32 [60.8] μg/mL	48.0 [91.3] μg/mL	–
N=C(N)NCCCN(CCCNC(=N)N)c1nc(Cl)nc(NCCNc2nc(NCCNc3nc(N)nc(NCCC(c4ccccc4)c4ccccc4)n3)nc(N(CCCNC(=N)N)CCCNC(=N)N)n2)n1 [TZP10]	4 [3.8] μg/mL	4 [3.8] μg/mL	16 [15.4] μg/mL	4 [3.8] μg/mL	7.0 [6.7] μg/mL	–
N=C(N)NCCCN(CCCNC(=N)N)c1nc(N)nc(NCCNc2nc(NCCNc3nc(Cl)nc(N(CCCNC(=N)N)CCCNC(=N)N)n3)nc(N(Cc3ccccc3)Cc3ccccc3)n2)n1 [TZP9]	2 [1.9] μg/mL	2 [1.9] μg/mL	8 [7.8] μg/mL	2 [1.9] μg/mL	3.5 [3.4] μg/mL	–
N=C(N)NCCCN(CCCNC(=N)N)c1nc(N)nc(NCCNc2nc(Cl)nc(N(Cc3ccccc3)Cc3ccccc3)n2)n1 [TZP2]	2 [3] μg/mL	2 [3] μg/mL	8 [11.8] μg/mL	2 [3] μg/mL	3.5 [5.2] μg/mL	–
NCCCN(CCCN)c1nc(N)nc(NCCNc2nc(NCCNc3nc(Cl)nc(N(Cc4ccccc4)Cc4ccccc4)n3)nc(N(CCCN)CCCN)n2)n1 [TZP4]	2 [2.3] μg/mL	2 [2.3] μg/mL	4 [4.7] μg/mL	2 [2.3] μg/mL	2.5 [2.9] μg/mL	–
CC[C@H](C)[C@H](NC(=O)CN)C(=O)NCC(=O)N[C@@H](C)C(=O)N[C@H](C(=O)N[C@@H](CC(C)C)C(=O)N[C@@H](CCCCN)C(=O)N[C@H](C(=O)N[C@@H](CC(C)C)C(=O)N[C@H](C(=O)N[C@H](C(=O)NCC(=O)N[C@@H](CC(C)C)C(=O)N1CCC[C@H]1C(=O)N[C@@H](C)C(=O)N[C@@H](CC(C)C)C(=O)N[C@H](C(=O)N[C@@H](CO)C(=O)N[C@@H](Cc1c[nH]c2ccccc12)C(=O)N[C@H](C(=O)N[C@@H](CCCCN)C(=O)N[C@@H](CCCNC(=N)N)C(=O)N[C@@H](CCCCN)C(=O)N[C@@H](CCCNC(=N)N)C(=O)N[C@@H](CCC(N)=O)C(=O)N[C@@H](CCC(N)=O)C(N)=O)[C@@H](C)CC)[C@@H](C)CC)[C@@H](C)O)[C@@H](C)O)C(C)C)C(C)C [melittin, reference compound]	–	–	–	–	–	MIC MRSA CCARM 3089 [7]: 8 µg/mL (≈ 2.81 µM); MIC MRSA CCARM 3090 [8]: 8 µg/mL (≈ 2.81 µM); MIC MRSA CCARM 3095 [9]: 16 µg/mL (≈ 5.62 µM); MIC MDRPA CCARM 2095 [10]: 8 µg/mL (≈ 2.81 µM); MIC MDRPA CCARM 2109 [11]: 8 µg/mL (≈ 2.81 µM); antibacterial activity after incubation with trypsin (trypsin): lose its antibacterial activity entirely
NCCCN(CCCN)c1nc(N)nc(NCCNc2nc(NCCNc3nc(Cl)nc(N(CCCN)CCCN)n3)nc(N(CCCN)CCCN)n2)n1 [TZP7]	8 [10.1] μg/mL	16 [20.2] μg/mL	8 [10.1] μg/mL	16 [20.2] μg/mL	12.0 [15.2] μg/mL	–
N=C(N)NCCCN(CCCNC(=N)N)c1nc(Cl)nc(NCCNc2nc(NCCNc3nc(N)nc(N(CCCN)CCCN)n3)nc(N(Cc3ccccc3)Cc3ccccc3)n2)n1 [TZP6]	2 [2.1] μg/mL	2 [2.1] μg/mL	4 [4.2] μg/mL	2 [2.1] μg/mL	2.5 [2.7] μg/mL	–
N=C(N)NCCCN(CCCNC(=N)N)c1nc(Cl)nc(NCCNc2nc(NCCNc3nc(NCCNc4nc(N)nc(NCCC(c5ccccc5)c5ccccc5)n4)nc(N(CCCNC(=N)N)CCCNC(=N)N)n3)nc(NCCC(c3ccccc3)c3ccccc3)n2)n1 [TZP11]	8 [9.2] μg/mL	8 [9.2] μg/mL	16 [18.3] μg/mL	8 [9.2] μg/mL	10.0 µg/mL	–
NCCCN(CCCN)c1nc(NCCNc2nc(N)nc(N(Cc3ccccc3)Cc3ccccc3)n2)nc(NCCNc2nc(Cl)nc(N(Cc3ccccc3)Cc3ccccc3)n2)n1 [TZP8]	8 [8.7] μg/mL	8 [8.7] μg/mL	>64 [>69.3] μg/mL	8 [8.7] μg/mL	38.0 [41.1] μg/mL	–
